Read-outs that look alike come from different tables or passages of the source.
Key:
[1] = background; cited from earlier work
[2] = tested on: suspension-cultured corn cells; conditions: Balsevich et al 1994; cited from earlier work
α-amylase activity = conditions: Nakano et al. 1995; cited from earlier work
excised wheat embryos = assay: Wheat embryo germination inhibition; format: in vivo, Triticum aestivum L. cv. Clark's Cream; conditions: in vivo
Description: Grains of soft white wheat (Triticum aestivum L. cv. Clark's Cream) were used. For bioassay, embryos with some adhering endosperm and pericarp attached were cut from the grains with a razor blade. Analogs were prepared by dissolving into a minimal amount of DMSO to prepare a 0.1 M solution, and then diluted with […], pH 5.8, to 0.01, 0.1, 1, 10 and 100 μM. For each analog concentration six replicate germination assays were conducted on 10 embryos each at 30° C. Embryos were incubated in Petri dishes (100×15 mm) containing 6 ml solution.

lettuce seed = conditions: Nakano et al. 1995; cited from earlier work
[3] = tested on: suspension-cultured corn cells (var. Black Mexican Sweet); assay: Growth inhibition of suspension-cultured corn cells; format: cell-based, corn (maize); conditions: four days
[4] = tested on: stomatal opening of spiderwort; conditions: Nakano et al. 1995, cited from earlier work
rice seedling leaves = conditions: Nakano et al. 1995; cited from earlier work
[5] = tested on: ABA-responsive cor6.6 promoter; assay: ABA-inducible gene expression (GUS activity) in transgenic tobacco seedlings containing Pcor6.6-GUS; format: in vivo, transgenic tobacco (promoter from Arabidopsis thaliana); conditions: 24 hours (FIG. 15)
Description: The results shown are an average of duplicate assays on samples containing 34 seedlings.
The results shown are an average of duplicate samples containing cotyledons from 34 seedlings.

[6] = tested on: Interior spruce seedlings; assay: Drought avoidance of transplanted spruce seedlings; format: in vivo
Excerpt: (§1) The ABA analog was applied as a spray-root drench that stimulated application through a nursery irrigation system. Seedlings with intact root-soil plugs were placed in a container, and ABA analog treatments were applied as a top drench. Treated seedlings were kept in the large container where the treatment flow-through was allowed to be re-absorbed into the plugs over a two day period. This ensured that all of the treatment was taken up by the root plugs and was available to seedlings. During testing, root-soil plugs were kept intact, enabling ABA analog treatments to be retained in close contact with the root system.
For this testing program, ABA analog #365 was applied at 10^-4, […] and 10^-3 M concentrations. Analogs were dissolved in an acetone solution (@ 1%) to prepare ABA analog treatments. In addition, there was a control treatment of acetone only @ 1%. The analog treatments were applied one time, two days before the start of experimental measurements. Each seedling received approximately 20 ml of either an analog or a control solution.
Just after treatment application, seedlings (n=75) were put through a rapid eight to fifteen day drought. Seedlings were watered to saturation during ABA analog application. After 24 to 48 hours, when all of the ABA analog solution was absorbed by the seedling root plug, root systems were enclosed in a plastic bag and placed in a darkened chamber with the shoot systems exposed to the above described controlled environment conditions. Seedlings were allowed to dry out through shoot transpiration. Gas exchange parameters (Pn, and gwv) of seedlings (n=8) from each treatment were measured during each daylight period. At each gas exchange measurement time, seedlings were measured with a pressure chamber to determine .psi., Changes in gas exchange parameters and seedling water balance were determined over time.
A study was conducted to determine how the ABA analog influenced seedling response to potentially lethal soil drought. It was hypothesized that ABA analogs limit water use and delay deleterious physiological conditions in seedlings under limited soil water availability. The ABA analog would allow seedlings to avoid a potentially lethal drought stress to survive and have normal morphological development.
Just after treatment application, seedlings (n=75) were put through a rapid drought. Over the drought, seedlings were measured with a pressure chamber to determine .psi..

[7] = tested on: Interior spruce seedlings; assay: Growth of transplanted spruce seedlings; format: in vivo
[8] = tested on: Interior spruce seedlings; assay: Gas exchange of spruce seedlings; format: in vivo; conditions: optimum conditions; longer periods at higher concentrations (FIGS. 19-21)
Excerpt: as §1
For this testing program, ABA analog #365 was applied at 10^-4, […] and 10^-3 M concentrations. Analogs were dissolved in an acetone solution (@ 1%) to prepare ABA analog treatments. In addition, there was a control treatment of acetone only @ 1%. The analog treatments were applied one time, two days before the start of experimental measurements. […]
Gas exchange parameters (net photosynthesis (Pn), needle conductance (gwv), water use efficiency-not reported) were determined on the seedlings treated with the ABA analog at each concentration (n=8). […] Gas exchange parameters were assessed 9 times across the first 20 days of the measurement period. Thereafter, gas exchange parameters were periodically assessed at 5 times from day 20 until the 52nd day of the measurement period.

CC(=C/C(=O)O)/C=C/[C@]1(O)[C@@]2(C)CO[C@]1(C)CC(=O)C2 [Phaseic acid, phaseic acid]
activity in most assays [1]: little or no activity in most assays | shift (elevation) in pH of the medium (literature) [2]: not produced by PA

CC[C@@]1(C)CC(=O)C=C(C)[C@]1(O)/C=C/C(C)=C\C(=O)O [(+)-8'-methyl ABA]
blocking of GA3 stimulated α-amylase activity (α-amylase activity): nearly as active as (+)-ABA | germination inhibitory activity, wheat embryos (in words) (excised wheat embryos): more active than (+)-ABA | lettuce seed germination inhibition (lettuce seed): more active than (+)-ABA | growth inhibition activity (comparison in words) [3]: comparable to that produced by (+)-ABA | activity in stomatal opening [4]: more active than (+)-ABA | activity in stomatal opening ([4]; listed as 8'-methyl analog): only slightly weaker than ABA | activity in elongation of rice seedling leaves (rice seedling leaves): more active than (+)-ABA | fold weaker than ABA as inducer of GUS [5]: about 3 fold

Methyl 8'-methylene ABA [PBI-365]
drought avoidance capability, dependence on treatment concentration ([6]; FIG. 17): improved with higher treatment concentrations | needle conductance ([6]; drought conditions): reduction in needle conductance | seedling water balance ([6]; drought conditions): improved seedling water balance under drought conditions | drought avoidance capability ([6]; range of drought conditions): excellent drought avoidance capability | effect on seedling growth ([7]; moderate and severe drought conditions): no definitive effect on seedling growth | effect on seedling growth ([7]; near lethal drought conditions): positive influence on growth | long term effects on growth ([7]; optimum soil moisture conditions (FIG. 18)): no long term negative effects on growth | duration of reduction in gas exchange capability [8]: one to three

— patent publication US6004905A, “Hyperabas: biologically active abscisic acid analogs with unsaturated carbon substituents at the 8'-methyl or 9'-methyl carbon atoms” (National Research Council of Canada, priority 1998, dated 1999)
